Results taken from US20100267561A1, “HERBICIDAL PYRIDAZINONE DERIVATIVES” (priority 2007, published 2010).

Key:
Test in all cases: Test B pre-/postemergence plant response
Format in all cases: in vivo
[1] = tested on: blackgrass (Alopecurus myosuroides)
Method in brief: (§1)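 Seeds were sown and sprayed preemergence, while plants at 2 to 18 cm (1- to 4-leaf stage) got postemergence sprays. Compounds were formulated in a non-phytotoxic solvent mixture with surfactant. After 13 to 15 days in a greenhouse, injury was rated visually against untreated controls, 0 (no effect) to 100 (complete control).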

[2] = tested on: catchweed bedstraw (Galium aparine); conditions: Preemergence
Method in brief: as §1

[3] = tested on: common (oilseed) sunflower (Helianthus annuus); conditions: Preemergence
Method in brief: as §1

[4] = tested on: corn (Zea mays)
Method in brief: as §1

[5] = tested on: downy bromegrass (Bromus tectorum)
Method in brief: as §1

[6] = tested on: eastern black (E.B.) nightshade (Solanum ptycanthum); conditions: Preemergence
Method in brief: as §1

[7] = tested on: giant foxtail (Setaria faberii)
Method in brief: as §1

[8] = tested on: green foxtail (Setaria viridis)
Method in brief: as §1

[9] = tested on: johnsongrass (Sorghum halepense)
Method in brief: as §1

[10] = tested on: kochia (Kochia scoparia)
Method in brief: as §1

[11] = tested on: morningglory (Ipomoea coccinea)
Method in brief: as §1

[12] = tested on: pigweed (Amaranthus retroflexus)
Method in brief: as §1

[13] = tested on: surinam grass (Brachiaria decumbens)
Method in brief: as §1

[14] = tested on: woolly cupgrass (Eriochloa villosa)
Method in brief: as §1

[15] = Postemergence, 31 g ai/ha, scale 0 to 100, 0 no effect, 100 complete control
[16] = Postemergence, 62 g ai/ha, scale 0 to 100
[17] = Postemergence, 125 g ai/ha, scale 0 to 100
[18] = Postemergence, 250 g ai/ha, scale 0 to 100
[19] = Preemergence, 31 g ai/ha, 0 to 100 scale, 0 no effect, 100 complete control
[20] = Preemergence, 62 g ai/ha, scale 0 to 100
[21] = Preemergence, 125 g ai/ha, scale 0 to 100
[22] = 31 g ai/ha, 0 to 100 scale, 0 no effect, 100 complete control
[23] = Preemergence, 250 g ai/ha, scale 0 to 100
[24] = Postemergence, 16 g ai/ha, scale 0 to 100
[25] = Preemergence, 16 g ai/ha, scale 0 to 100 (0 no effect, 100 complete control)
[26] = 16 g ai/ha, scale 0 to 100 (0 no effect, 100 complete control)

Cc1cc(-c2ccc(Br)cc2)nn1-c1c(OC(=O)C2CC2)cnn(C)c1=O [Compound 5]
Blackgrass plant response rating ([1]; 250 g ai/ha, preemergence, 0-100 scale): 100 | Plant response rating, Blackgrass [1, 15]: 95 | Plant response rating, Blackgrass [1, 16]: 100 | Plant response rating, Blackgrass [1, 17]: 100 | Plant response rating, Blackgrass [1, 18]: 100 | Plant response rating, Blackgrass [1, 19]: 100 | Plant response rating, Blackgrass [1, 20]: 100 | Plant response rating, Blackgrass [1, 21]: 100 | Plant response rating, Galium ([2]; 125 g ai/ha, scale 0 to 100): 80 | Plant response rating, Galium ([2]; 250 g ai/ha, scale 0 to 100): 90 | Plant response rating, Sunflower [3, 22]: 0 | Plant response rating, Sunflower ([3]; 62 g ai/ha, scale 0 to 100): 0 | Plant response rating, Sunflower ([3]; 125 g ai/ha, scale 0 to 100): 0 | Plant response rating, Sunflower ([3]; 250 g ai/ha, scale 0 to 100): 0 | Plant response rating, Corn [4, 15]: 90 | Plant response rating, Corn [4, 16]: 100 | Plant response rating, Corn [4, 17]: 100 | Plant response rating, Corn [4, 18]: 100 | Plant response rating, Corn [4, 19]: 95 | Plant response rating, Corn [4, 20]: 95 | Plant response rating, Corn [4, 21]: 98 | Plant response rating, Corn [4, 23]: 100 | Plant response rating, Bromegrass, Downy [5, 15]: 5 | Plant response rating, Bromegrass, Downy [5, 16]: 50 | Plant response rating, Bromegrass, Downy [5, 17]: 50 | Plant response rating, Bromegrass, Downy [5, 19]: 40 | Plant response rating, Bromegrass, Downy [5, 20]: 85 | Plant response rating, Bromegrass, Downy [5, 21]: 98 | Plant response rating, Bromegrass, Downy ([5]; Preemergence, 250 g ai/ha, scale 0 to 100 (0 no effect, 100 complete control)): 100 | Plant response rating, Nightshade, E. B. ([6]; 62 g ai/ha, scale 0 to 100): 0 | Plant response rating, Nightshade, E. B. ([6]; 250 g ai/ha, scale 0 to 100): 100 | Plant response rating, Foxtail, Giant [7, 15]: 100 | Plant response rating, Foxtail, Giant [7, 16]: 100 | Plant response rating, Foxtail, Giant [7, 17]: 100 | Plant response rating, Foxtail, Giant [7, 18]: 100 | Plant response rating, Foxtail, Giant [7, 19]: 98 | Plant response rating, Foxtail, Giant [7, 20]: 100 | Plant response rating, Foxtail, Giant [7, 21]: 100 | Plant response rating, Foxtail, Giant [7, 23]: 100 | Plant response rating, Foxtail, Green [8, 15]: 95 | Plant response rating, Foxtail, Green [8, 16]: 100 | Plant response rating, Foxtail, Green [8, 17]: 100 | Plant response rating, Foxtail, Green [8, 18]: 100 | Plant response rating, Foxtail, Green [8, 19]: 98 | Plant response rating, Foxtail, Green [8, 20]: 100 | Plant response rating, Foxtail, Green [8, 21]: 100 | Plant response rating, Foxtail, Green [8, 23]: 100 | Plant response rating, Johnsongrass [9, 15]: 0 | Plant response rating, Johnsongrass [9, 16]: 0 | Plant response rating, Johnsongrass [9, 17]: 85 | Plant response rating, Johnsongrass [9, 18]: 90 | Plant response rating, Johnsongrass [9, 19]: 0 | Plant response rating, Johnsongrass [9, 20]: 100 | Plant response rating, Johnsongrass [9, 21]: 100 | Plant response rating, Johnsongrass [9, 23]: 100 | Plant response rating, Kochia [10, 15]: 0 | Plant response rating, Kochia [10, 16]: 0 | Plant response rating, Kochia [10, 17]: 0 | Plant response rating, Kochia [10, 18]: 70 | Plant response rating, Kochia [10, 20]: 50 | Plant response rating, Kochia [10, 21]: 50 | Plant response rating, Kochia [10, 23]: 60 | Plant response rating, Morningglory [11, 15]: 0 | Plant response rating, Morningglory [11, 16]: 0 | Plant response rating, Morningglory [11, 17]: 0 | Plant response rating, Morningglory [11, 18]: 0 | Plant response rating, Morningglory [11, 19]: 0 | Plant response rating, Morningglory [11, 20]: 0 | Plant response rating, Morningglory [11, 21]: 0 | Plant response rating, Morningglory [11, 23]: 0 | Plant response rating, Pigweed [12, 15]: 0 | Plant response rating, Pigweed [12, 16]: 0 | Plant response rating, Pigweed [12, 17]: 45 | Plant response rating, Pigweed [12, 18]: 45 | Plant response rating, Pigweed [12, 19]: 0 | Plant response rating, Pigweed [12, 20]: 0 | Plant response rating, Pigweed [12, 21]: 80 | Plant response rating, Pigweed [12, 23]: 100 | Plant response rating, Surinam Grass [13, 15]: 100 | Plant response rating, Surinam Grass [13, 16]: 100 | Plant response rating, Surinam Grass [13, 17]: 100 | Plant response rating, Surinam Grass [13, 18]: 100 | Plant response rating, Surinam Grass [13, 19]: 100 | Plant response rating, Surinam Grass [13, 20]: 100 | Plant response rating, Surinam Grass [13, 21]: 100 | Plant response rating, Surinam Grass [13, 23]: 100 | Plant response rating, Cupgrass, Woolly [14, 15]: 95 | Plant response rating, Cupgrass, Woolly [14, 16]: 100 | Plant response rating, Cupgrass, Woolly [14, 17]: 100 | Plant response rating, Cupgrass, Woolly [14, 18]: 100 | Plant response rating, Cupgrass, Woolly [14, 19]: 50 | Plant response rating, Cupgrass, Woolly [14, 20]: 90 | Plant response rating, Cupgrass, Woolly [14, 21]: 100 | Plant response rating, Cupgrass, Woolly [14, 23]: 100

CCc1cc(-c2ccc(C(F)(F)F)cc2)nn1-c1c(OC(=O)OC(C)C)cnn(C)c1=O [Compound 12]
Plant response rating, Blackgrass [1, 24]: 100 | Plant response rating, Blackgrass [1, 15]: 100 | Plant response rating, Blackgrass [1, 16]: 100 | Plant response rating, Blackgrass [1, 17]: 100 | Plant response rating, Blackgrass [1, 25]: 98 | Plant response rating, Blackgrass [1, 19]: 100 | Plant response rating, Blackgrass [1, 20]: 100 | Plant response rating, Blackgrass [1, 21]: 100 | Plant response rating, Galium [2, 26]: 0 | Plant response rating, Galium [2, 22]: 0 | Plant response rating, Galium ([2]; 62 g ai/ha, scale 0 to 100): 0 | Plant response rating, Galium ([2]; 125 g ai/ha, scale 0 to 100): 0 | Plant response rating, Sunflower [3, 26]: 0 | Plant response rating, Sunflower [3, 22]: 0 | Plant response rating, Sunflower ([3]; 62 g ai/ha, scale 0 to 100): 0 | Plant response rating, Sunflower ([3]; 125 g ai/ha, scale 0 to 100): 0 | Plant response rating, Corn [4, 24]: 100 | Plant response rating, Corn [4, 15]: 100 | Plant response rating, Corn [4, 16]: 100 | Plant response rating, Corn [4, 17]: 100 | Plant response rating, Corn [4, 25]: 70 | Plant response rating, Corn [4, 19]: 75 | Plant response rating, Corn [4, 20]: 95 | Plant response rating, Corn [4, 21]: 95 | Plant response rating, Bromegrass, Downy [5, 24]: 85 | Plant response rating, Bromegrass, Downy [5, 15]: 85 | Plant response rating, Bromegrass, Downy [5, 16]: 85 | Plant response rating, Bromegrass, Downy [5, 25]: 0 | Plant response rating, Bromegrass, Downy [5, 19]: 0 | Plant response rating, Bromegrass, Downy [5, 20]: 70 | Plant response rating, Bromegrass, Downy [5, 21]: 75 | Plant response rating, Nightshade, E. B. [6, 26]: 0 | Plant response rating, Nightshade, E. B. [6, 22]: 0 | Plant response rating, Nightshade, E. B. ([6]; 62 g ai/ha, scale 0 to 100): 50 | Plant response rating, Nightshade, E. B. ([6]; 125 g ai/ha, scale 0 to 100): 85 | Plant response rating, Foxtail, Giant [7, 24]: 100 | Plant response rating, Foxtail, Giant [7, 15]: 100 | Plant response rating, Foxtail, Giant [7, 16]: 100 | Plant response rating, Foxtail, Giant [7, 17]: 100 | Plant response rating, Foxtail, Giant [7, 25]: 100 | Plant response rating, Foxtail, Giant [7, 19]: 100 | Plant response rating, Foxtail, Giant [7, 20]: 100 | Plant response rating, Foxtail, Giant [7, 21]: 100 | Plant response rating, Foxtail, Green [8, 24]: 85 | Plant response rating, Foxtail, Green [8, 15]: 100 | Plant response rating, Foxtail, Green [8, 16]: 100 | Plant response rating, Foxtail, Green [8, 17]: 100 | Plant response rating, Foxtail, Green [8, 25]: 100 | Plant response rating, Foxtail, Green [8, 19]: 100 | Plant response rating, Foxtail, Green [8, 20]: 100 | Plant response rating, Foxtail, Green [8, 21]: 100 | Plant response rating, Johnsongrass [9, 24]: 100 | Plant response rating, Johnsongrass [9, 15]: 100 | Plant response rating, Johnsongrass [9, 16]: 100 | Plant response rating, Johnsongrass [9, 17]: 100 | Plant response rating, Johnsongrass [9, 25]: 70 | Plant response rating, Johnsongrass [9, 19]: 95 | Plant response rating, Johnsongrass [9, 20]: 100 | Plant response rating, Johnsongrass [9, 21]: 100 | Plant response rating, Kochia [10, 24]: 0 | Plant response rating, Kochia [10, 15]: 0 | Plant response rating, Kochia [10, 16]: 0 | Plant response rating, Kochia [10, 17]: 0 | Plant response rating, Kochia [10, 25]: 0 | Plant response rating, Kochia [10, 19]: 0 | Plant response rating, Kochia [10, 20]: 0 | Plant response rating, Kochia [10, 21]: 0 | Plant response rating, Morningglory [11, 24]: 0 | Plant response rating, Morningglory [11, 15]: 0 | Plant response rating, Morningglory [11, 16]: 0 | Plant response rating, Morningglory [11, 17]: 40 | Plant response rating, Morningglory [11, 25]: 0 | Plant response rating, Morningglory [11, 19]: 0 | Plant response rating, Morningglory [11, 20]: 0 | Plant response rating, Morningglory [11, 21]: 0 | Plant response rating, Pigweed [12, 24]: 0 | Plant response rating, Pigweed [12, 15]: 0 | Plant response rating, Pigweed [12, 16]: 5 | Plant response rating, Pigweed [12, 17]: 50 | Plant response rating, Surinam Grass [13, 24]: 100 | Plant response rating, Surinam Grass [13, 15]: 100 | Plant response rating, Surinam Grass [13, 16]: 100 | Plant response rating, Surinam Grass [13, 17]: 100 | Plant response rating, Surinam Grass [13, 25]: 100 | Plant response rating, Surinam Grass [13, 19]: 100 | Plant response rating, Surinam Grass [13, 20]: 100 | Plant response rating, Surinam Grass [13, 21]: 100 | Plant response rating, Cupgrass, Woolly [14, 24]: 100 | Plant response rating, Cupgrass, Woolly [14, 15]: 100 | Plant response rating, Cupgrass, Woolly [14, 16]: 100 | Plant response rating, Cupgrass, Woolly [14, 17]: 100 | Plant response rating, Cupgrass, Woolly [14, 25]: 80 | Plant response rating, Cupgrass, Woolly [14, 19]: 85 | Plant response rating, Cupgrass, Woolly [14, 20]: 98 | Plant response rating, Cupgrass, Woolly [14, 21]: 100
